{"source": "patent US20220054485A1", "about": "“METHODS OF TREATING RIGHT VENTRICULAR FUNCTION IN PULMONARY HYPERTENSION” (REGENTS OF THE UNIVERSITY OF MINNESOTA, priority 2020, published 2022)", "key": {"[1]": {"test_system": "MCT rats", "settings": "cited from earlier work"}, "[2]": {"test_system": "H9c2 cardiomyocytes", "assay": "Seahorse mitochondrial respiration in H9c2 cardiomyocytes", "assay_type": "cell-based, rat", "settings": "20 μM paclitaxel overnight", "experimental": "Cell culture and mitochondrial respiration measurements: H9c2 (ATCC CRL-1446) rat cardiomyocytes were maintained in Dulbecco's Modified Eagle's Medium (DMEM) (Thermo Scientific) supplemented with 10% fetal bovine serum (FBS) (Foundation, Gemini Bio-Products, West Sacramento, Calif.), 100 U/ml penicillin, and 100 μg/ml streptomycin (Invitrogen, Carlsbad, Calif.) at 37° C. with 5% CO2. Cells were passaged with Accutase (BioLegend, San Diego, Calif.). Differentiation was induced by changing to differentiation medium which had 2% horse serum (Equitech-Bio, Kerrville, Tex.), in place of FBS. Ten thousand cells were plated per Agilent Seahorse XFp dish pretreated with 0.1% gelatin (Sigma-Aldrich, St. Louis, Mo.). Five days after initial plating, cells were treated with differentiation media supplemented with 20 μM paclitaxel in DMSO (Sigma-Aldrich) overnight. The following day and one hour before the assay, cell media was changed to Seahorse DMEM assay media and supplemented with 5 mM glucose, 4 mM glutamine, and 1 mM pyruvate (Agilent, Santa Clara, Calif.). Oxygen consumption rate (OCR) was measured with an Agilent Seahorse XFp Extracellular Flux analyzer using the Agilent XFp Cell Mito Stress Test Kit with oligomycin A (final concentration after injection 1.5 μM), carbonyl cyanide 4-(trifluoromethoxy)phenylhydrazone (FCCP at 2 μM), and […] rotenone/actimycin. After the assay, cells were lysed in 50 μl of 1× Laemmli sample buffer supplemented with HALT protease and phosphatase inhibitor cocktail (Thermo Fisher). Cell lysates were electrophoresed on SDS-PAGE gels and stained with CBB per above to estimate total protein per sample. Raw Seahorse measurements were normalized to total protein and analyzed using Agilent Wave software."}, "[3]": {"target": "T1, IL-6 receptor (Homo sapiens, UniProt P08887)", "T1 construct": "host or cells: PAH patients (clinical trial run by others)", "T1 sequence (P08887 20-468)": "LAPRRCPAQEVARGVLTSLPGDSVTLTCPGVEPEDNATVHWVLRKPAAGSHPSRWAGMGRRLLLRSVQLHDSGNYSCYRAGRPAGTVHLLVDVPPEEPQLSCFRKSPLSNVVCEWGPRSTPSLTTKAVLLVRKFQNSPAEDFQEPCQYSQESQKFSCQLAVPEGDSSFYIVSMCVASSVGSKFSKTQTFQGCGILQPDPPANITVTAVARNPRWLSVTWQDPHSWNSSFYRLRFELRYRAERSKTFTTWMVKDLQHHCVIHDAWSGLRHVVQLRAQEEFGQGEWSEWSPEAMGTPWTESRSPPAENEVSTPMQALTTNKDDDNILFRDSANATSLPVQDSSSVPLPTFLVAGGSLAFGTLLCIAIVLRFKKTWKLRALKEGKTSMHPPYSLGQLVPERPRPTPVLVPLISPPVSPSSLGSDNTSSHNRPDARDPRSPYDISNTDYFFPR", "settings": "PAH patients, vs control group; cited from earlier work"}, "[4]": {"test_system": "adult cardiomyocytes", "assay": "IL6 incubation of isolated adult cardiomyocytes (microtubules, JPH2, t-tubules)", "assay_type": "cell-based", "settings": "IL6 10 ng/mL", "experimental": "To examine the direct effects of IL6 on the MT-JPH2 pathway, adult cardiomyocytes were incubated with IL6 (10 ng/mL) and then it was quantified how MT, JPH2, and t-tubules were affected. IL6 increased MT density as determined by quantitative immunofluorescence (16.0±0.9 vs 20.4±0.7 fluorescence intensity/μm^2, p<0.001) (FIGS. 4A and 4B). The altered MT structure disrupted JPH2 localization marked by loss of t-tubule enrichment (TT score: 65.6±2.5 vs 59.6±1.6, p=0.04) (FIGS. 4C and 4D). Finally, IL6 caused t-tubule remodeling with loss of t-tubule regularity (TT score: 59.9±1.9 vs 51.9±1.5, p=0.003) (FIGS. 4E and 4F).\nDetermination of how IL6 alters the microtubule-JPH2-t-tubule pathway in isolated cardiomyocytes: Right ventricular cardiomyocytes are isolated using the Langendorf retrograde perfusion protocol. Cardiomyocytes are incubated for 24, 48, and 72 hours with either phosphate buffered saline (PBS), IL6 (10 ng/mL), IL6 (10 ng/mL) plus the STAT3 inhibitor Stattic (2 μM), or IL6 (10 ng/mL) plus colchicine (10 μM). Then Western blot analysis and confocal microscopy is used to examine microtubule density, JPH2 protein levels and localization, and t-tubule morphology. JPH2 localization patterns and t-tubule remodeling are quantified using the TTPower plug-in in FIJI."}, "[5]": {"settings": "therapy started one week after MCT"}}, "note": "Entries after “also recorded” stand apart in the source; their conditions may differ. Where two headings read alike, the source gives them in different places."}
{"compound": "COc1cc2c(c(OC)c1OC)-c1ccc(OC)c(=O)cc1[C@@H](NC(C)=O)CC2", "note": "[colchicine]", "values": [{"measurement": "JPH2 expression", "setting": "[1]; RV, listed as Colchicine", "result": "increases JPH2 expression"}, {"measurement": "t-tubule architecture", "setting": "[1]; RV, listed as Colchicine", "result": "corrects t-tubule architecture"}, {"measurement": "JPH2 expression", "setting": "[1]; RV", "result": "increases JPH2 levels; also recorded: increases JPH2 expression"}, {"measurement": "microtubule density", "setting": "[1]; RV", "result": "reduces microtubule density"}, {"measurement": "t-tubule architecture", "setting": "[1]; RV", "result": "combats pathological t-tubule remodeling"}, {"measurement": "RV function / contractility", "setting": "[1]", "result": "augments RV function"}, {"measurement": "exercise capacity", "setting": "[1]", "result": "enhances exercise capacity"}, {"measurement": "RV function / contractility", "setting": "[1]; listed as Colchicine", "result": "improves RV function"}]}
{"compound": "CCCc1nn(C)c2c(=O)[nH]c(-c3cc(S(=O)(=O)N4CCN(C)CC4)ccc3OCC)nc12", "note": "[sildenafil]", "values": [{"measurement": "JPH2 expression", "setting": "[1]; RV", "result": "restores RV JPH2 expression"}, {"measurement": "t-tubule architecture", "setting": "[1]; RV", "result": "restores RV JPH2 expression and t-tubule architecture"}, {"measurement": "RV function / contractility", "setting": "[1]", "result": "improves RV contractility"}]}
{"compound": "C[C@]12CCC(OC=O)CC1CC[C@@H]1[C@@H]2CC[C@]2(C)C(C34C=CC(=O)OC3O4)CC3O[C@]312", "note": "(stereo partly shown) [20S,21-epoxy-resibufogenin-3-formate]", "values": [{"measurement": "mPAP", "setting": "[1]; [5]", "result": "lowered mPAP"}, {"measurement": "pulmonary vascular remodeling", "setting": "[1]; [5]", "result": "attenuated adverse pulmonary vascular remodeling"}]}
{"compound": "CC(=O)O[C@H]1C(=O)[C@@]2(C)[C@H]([C@H](OC(=O)c3ccccc3)[C@]3(O)C[C@H](OC(=O)[C@H](O)[C@@H](NC(=O)c4ccccc4)c4ccccc4)C(C)=C1C3(C)C)[C@]1(OC(C)=O)CO[C@@H]1C[C@@H]2O", "note": "[Paclitaxel, paclitaxel]", "values": [{"measurement": "ATP production", "setting": "[2]", "result": "reduced"}, {"measurement": "coupling efficiency", "setting": "[2]", "result": "reduced"}, {"measurement": "maximal respiration", "setting": "[2]", "result": "reduced"}, {"measurement": "proton leak", "setting": "[2]", "result": "enhanced"}, {"measurement": "spare capacity", "setting": "[2]", "result": "reduced"}]}
{"compound": "tocilizumab: a monoclonal antibody that antagonizes the IL-6 receptor", "values": [{"measurement": "PVR", "setting": "[3]", "result": "not different between the tocilizumab and control groups; also recorded: does not alter PVR"}]}
{"compound": "IL6: inflammatory cytokine that binds to the cell membrane proteins IL6 receptor and GP130", "values": [{"measurement": "JPH2 t-tubule enrichment (TT score)", "setting": "[4]", "result": "59.6±1.6"}, {"measurement": "MT density by quantitative immunofluorescence", "setting": "[4]", "result": "20.4±0.7 fluorescence intensity/μm^2"}, {"measurement": "t-tubule regularity (TT score)", "setting": "[4]", "result": "51.9±1.5"}]}
